# Measurements taken from patent publication US20140243403A1, “TREATING COLORECTAL, PANCREATIC, AND LUNG CANCER” (The General Hospital Corporation, priority 2011, published 2014).
# Legend:
# [1] = system: KRAS mutant pancreatic ductal adenocarcinoma (PDAC) cells; test: Sensitivity of KRAS mutant PDAC cell lines; assay type: cell-based; details: 5 KRAS mutant PDAC cell lines, APC wild-type
# Experimental: (B) 5Z-7-oxozeaenol IC50 values for KRAS mutant PDAC and NSCLC cell lines.
# To determine if sensitivity to TAK1 inhibition is specific to colon cancer-derived cell lines, sensitivity to 5Z-7-oxozeaenol was assessed in 5 KRAS mutant pancreatic ductal adenocarcinoma (PDAC) and 4 non-small cell lung cancer (NSCLC) cells, all of which are APC wild-type (FIG. 9B).
# [2] = system: SK-CO-1 and SW620 (KRAS-dependent) xenografted tumors; test: Subcutaneous xenografted tumors, KRAS-dependent; assay type: in vivo, NOD/SCID mice; details: 15 mg/kg daily intraperitoneal, 6 days of treatment
# Experimental: (§1) (C) TAK1 inhibition in mice with xenografted human tumors derived from the HCT8/SW837 (KRAS-independent) and SK-CO-1/SW620 (KRAS-dependent) cell lines. Cells expressing firefly luciferase were injected subcutaneously into the flanks of […]. Tumors are shown as imaged by IVIS detection of luminescence counts (in photons/sec) following 14 days of tumor growth followed by 6 days of treatment with either 15 mg/kg 5z-7-oxozeaenol or vehicle ([…] in arachis oil), IP delivery q.d. Quantitation of tumor volume (mm^3) is plotted on the right. Tumor volume data are represented as the mean of 4 tumors in 2 mice for each group+/−SEM.
# (§2) To validate the efficacy of 5Z-7-oxozeaenol in vivo, subcutaneous xenografted tumors were generated in NOD/SCID mice using four representative KRAS mutant cell lines: HCT8 and SW837 (KRAS-independent), and SK-CO-1 and SW620 (KRAS-dependent). Human colorectal cancer tumor cells were trypsinized and resuspended as single cell suspensions at 3×10^7 cells per ml in PBS. 100 μL (3×10^6 cells total) of this suspension were injected into opposite left and right flanks of NOD/SCID mice. All mice were housed in a pathogen-free environment. Tumor size was monitored daily and once tumor volume had reached approximately 200 mm^3, treatment with 5Z-7-oxozeaenol was initiated (7 to 14 days post-implantation). Mice were injected daily with 15 mg/kg 5Z-7-oxozeaenol. […]
# [3] = system: HCT8 and SW837 (KRAS-independent) xenografted tumors; test: Subcutaneous xenografted tumors, KRAS-independent; assay type: in vivo, NOD/SCID mice; details: 15 mg/kg daily intraperitoneal
# Experimental: as §1, §2
# [4] = Toxicity in treated xenograft mice; assay type: in vivo, NOD/SCID mice; details: 15 mg/kg daily intraperitoneal
# Experimental: To validate the efficacy of 5Z-7-oxozeaenol in vivo, subcutaneous xenografted tumors were generated in NOD/SCID mice using four representative KRAS mutant cell lines: HCT8 and SW837 (KRAS-independent), and SK-CO-1 and SW620 (KRAS-dependent). Human colorectal cancer tumor cells were trypsinized and resuspended as single cell suspensions at 3×10^7 cells per ml in PBS. 100 μL (3×10^6 cells total) of this suspension were injected into opposite left and right flanks of NOD/SCID mice. All mice were housed in a pathogen-free environment. Tumor size was monitored daily and once tumor volume had reached approximately 200 mm^3, treatment with 5Z-7-oxozeaenol was initiated (7 to 14 days post-implantation). Mice were injected daily with 15 mg/kg 5Z-7-oxozeaenol. The drug was resuspended as a 25 mg/ml stock in DMSO. This was further diluted 10-fold in Arachis Oil (Sigma Inc.) to yield a 2.5 mg/ml stock in 10% DMSO. Approximately 120 μl of this stock was delivered to 20 g mice intraperitoneally. Alternatively, 10% DMSO in Arachis Oil was delivered as a vehicle control.
# Palpable tumors were evident two weeks post-implantation, at which time mice were treated with either daily intraperitoneal 15 mg/kg of 5Z-7-oxozeaenol or vehicle alone (Rawlins et al., 1999).
# [5] = system: TOP-FLASH TCF4-responsive luciferase reporter; test: TOP-FLASH TCF4 luciferase reporter in colon cancer cell lines; assay type: cell-based, human
# From the text: (B) TOP-FLASH activity in KRAS-independent and KRAS-dependent cell lines following TAK1 inhibition with indicated concentrations (μM). Data are represented as means of triplicate experiments±SEM.
# Since Wnt pathway enrichment was found in KRAS-dependent cells (FIG. 8C), the TAK1 dependency signature was overlapped with a dataset of binding sites for the Wnt-regulated transcription factor TCF4, derived from ChIP-on-Chip analyses (Hatzis et al., 2008). Of the 32 TAK1 dependency genes, 18 contained proximal TCF4 binding sites. A number of these genes, such as BAMBI, PROX1 and NAV2 (HELAD1) have been previously linked to colon tumorigenesis in the context of deregulated Wnt signaling (Lin et al., 2008; Petrova et al., 2008; Sekiya et al., 2004). Basal Wnt signaling activity was measured by TOP-FLASH TCF4-responsive luciferase assays. Cells were plated in 12-well tissue culture plates at a density of 5×10^4 cells/ml and 1 ml per well. Cells were then co-transfected with either 0.5 μg FOP-FLASH or TOP-FLASH plasmids plus 50 ng of pRL-TK (expressing Renilla luciferase). […]
# To explore the role of KRAS and TAK1 in modulating Wnt signaling, the effect of KRAS depletion on β-catenin/TCF transcription was first assessed in a panel of KRAS mutant cell lines using the TOP-FLASH reporter (FIGS. 5A and 11A). […]
# [6] = system: HT29 cells expressing mutant KRAS (G12V) 4A or 4B; test: Sensitivity of HT29 cells expressing mutant KRAS (G12V); assay type: cell-based, human; details: HT29 cells expressing 4A or 4B splice isoform of mutant KRAS (G12V)
# From the text: (§3) (D) Forced overexpression of epitope-tagged oncogenic G12V mutated RAS protein isoforms in HT29 cells and sensitivity to TAK1 pharmacological inhibition with 5Z-7-oxozeaenol. Expression levels of exogenous and endogenous Ras proteins are shown by immunoblotting with a pan-ras monoclonal antibody. NRAS/KRAS4B are HA-tagged and KRAS4A is V5-tagged.
# (§4) These cell lines are insensitive to 5Z-7-oxozeaenol.
# [7] = system: HT29 cells expressing mutant NRAS; test: Sensitivity of HT29 cells expressing mutant NRAS; assay type: cell-based, human; details: HT29 cells with ectopic mutant NRAS
# From the text: as §3, §4
structure (smiles),measurement,setting,value
COc1cc(O)c2c(c1)/C=C/C[C@H](O)[C@H](O)C(=O)/C=C\C[C@H](C)OC2=O [5Z-7-oxozeaenol],sensitivity to 5Z-7-oxozeaenol,[1],largely refractory
same,"tumor response (imaging, tumor volume)",[2],remarkable regression
same,"tumor response (imaging, tumor volume)",[3],no significant response
same,toxicity in treated mice,[4],No overt toxicity
same,IC50,"[5]; KRAS-independent cells, 24 h treatment, read-out: IC50 for effect on TOP-FLASH activity",> 10 µM
same,TOP-FLASH activity response,"[5]; SW837 cells, increased at low doses, reduced at 5 μM",biphasic response
same,reduction in the IC50 for 5Z-7-oxozeaenol,[6],3 fold
same,change in sensitivity to 5Z-7-oxozeaenol,[7],slightly increased resistance
